The conditions of data set [1]: high-purity CBD, background statement; cited from earlier work.
Another data set is described as follows: Solubility in water. It counts as physicochemical. From the text: ^1[…]=0.8 Hz, 1[…]=7.6 Hz, 2[…]=6.8 Hz, 3H).

These results are taken from US20240417371A1, “CANNABIDIOL DERIVATIVE, AND PREPARATION METHOD THEREFOR AND USE THEREOF” (priority 2021, published 2024).

Molecules are shown by their SMILES.

Take `C=C(C)[C@@H]1CCC(C)=C[C@H]1c1c(O)cc(CCCCC)cc1O` [CBD, 2-[(1R,6R)-3-methyl-6-(1-methylvinyl)-2-cyclohexen-1-yl]-5-pentyl-1,3-benzenediol]: in data set [1], the “solubility in water” value is recorded as “almost insoluble in water”.
What is called solubility is how much of the substance goes into solution per volume. Consider `C=C(C)[C@@H]1CCC(C)=C[C@H]1c1c(OCC(=O)N[C@@H](CCSC)C(=O)[O-])cc(CCCCC)cc1OCC(=O)N[C@@H](CCSC)C(=O)[O-].[Na+].[Na+]` [Compound E2], for which the concentration in solution in “Solubility in water” (solubility) was 200 mg/mL.
